Measurements from patent EP0565593B1, “REDUCING PESTICIDAL INTERACTIONS IN CROPS” (priority 1990, dated 1992).
Values joined by “and” are separate entries in the source; they are usually repeats but may differ in a detail not shown here. Identical values can stand only once. Like-named read-outs stand apart in the source and are kept apart here.

How the values were obtained:
[1] = test system: Giant foxtail (GIFT); experiment: whole plant or invertebrate; format: in vivo; settings: in vivo
[2] = test system: Velvetleaf (VELE); format: in vivo, Abutilon theophrasti
[3] = test system: Shattercane (SHCA); format: in vivo
[4] = test system: Corn; experiment: Greenhouse test Procedure VII: biocide and antidote in furrow, herbicide POE (Examples 39-42, 48-50, 56-58; Tables 38-41, 47-49, 55-57); format: in vivo; settings: for % Inhibition Corn: C (COUNTER) + antidote in furrow
Source text: This procedure describes interaction among herbicide, biocide and antidote when the biocide and the antidote is applied to a soil furrow containing crop seed before emergence of the crop and the herbicide is applied after emergence of the crop and weeds. The soil and planting depth was described in Procedure IV. The containers for comparison, the biocide and antidote applications to soil furrows were described in Procedure VI. In this procedure, the seed beds of the first, second, third and fourth containers are covered by soil layers not treated with herbicide. The containers were then placed on a bench in a greenhouse and subirrigated as required for the duration of the test. The herbicide, dispersed or dissolved in water containing 0.25% v/v nonionic surfactant (X-77) was applied by a track sprayer (187 L/ha) to the emerged plants of the second, third and fourth containers about five days after planting. All treatments were run in duplicate. Plant response was observed according to Procedure IV. Variations in this procedure will be noted in the examples.
In this example, tests were conducted according to Procedure VII for the POE application of the herbicides following in-furrow application of COUNTER® 15G insecticide (BIOCIDE No. 1) and the antidote on the pre-planted test seeds. In this test, the herbicides were Nos. 1 (MON-12000), 10 (ALLY®) and #4 (HARMONY®) and the Antidote Nos. 1, 7, 12 and 33.
These in-furrow treatments comprised a 50-50 mix of blended granules of COUNTER with and without 5G granular antidotes at 7.4 + 7.4 mg/cm or 1.1 + 0.37 mg active ingredient (a.i.)/cm. The in-furrow initiation of the test was followed five (5) days later with POE application of the herbicides; observations were made eight (8) days later.
In another test, conducted simultaneously with that in Example 39, Herbicide Nos. 5 (chlorimuron ethyl, active ingredient in CLASSIC® herbicide), 7 (nicosulfuron, active ingredient in ACCENT® herbicide) and 15 (tribenuron methyl, active ingredient in EXPRESS® herbicide) were substituted as test herbicides.
In this example, using the same procedure as above, the following imidazolinone herbicides were used with the same insecticide/biocide and antidotes as above: Herb. No. 16 (imazaquin, a.i. in SCEPTER® herbicide; No. 19 (Code No. AC 222293, a.i. in ASSERT® herbicide); No. 6 (imazethapyr, a.i. in PURSUIT® herbicide and No. 18 (imazapyr, a.i. in ARSENAL® herbicide). Test results are shown in Table 40. Table 40
This example describes the testing of the above antidotes used in Examples 39-41 to safen negative synergy interactions between representative species of the class of herbicidal compounds identified as azolopyrimidine sulfonamides and COUNTER 15G. The same procedure used in the above examples was conducted in this test. In this test, the herbicides were formulated in 17% acetone and 83% water with 0.25% v/v X-77 surfactant.
In these tests (according to Procedure VII) the safeners in solution with acetone were applied in furrow to the soil, followed by COUNTER 15G granules at 227 g/305 m (8 oz./1000'). Applications were made in alternate rows in two separate 13.7 cm x 27.7 cm pans containing Dupo silt loam. Pans were seeded 1.3 cm deep, placed on benches in a greenhouse and subirrigated. BEACON was formulated in water with 0.25% v/v X-77 surfactant and applied by track sprayer at a rate of 187 L/Ha (20 gal/A). Weed species in this test were giant foxtail, shattercane and velvetleaf. The herbicide was applied five (5) days after PPI initiation and observation of test result (shown in Table 47) made eight (8) days later.
In Table 47 COUNTER 15G is abbreviated as "C" and the antidotes as "A" in the column headings which indicate the "C + A" ratios used in the tests. Control and COUNTER treatments are average of four (4) replications and COUNTER + Antidote treatments, average of 2 reps. […]

[5] = test system: Corn
[6] = Antidote 4.48 + Biocide No. 1 8.96 Kg/Ha PPI, Herb. No. 8 0.07, 5 DAP, before herbicide application
[7] = Antidote 4.48 + Biocide No. 1 8.96 Kg/Ha PPI, Herb. No. 8 0.07 POE, 13 DAP
[8] = Antidote 4.48 + Biocide No. 1 8.96 Kg/Ha PPI, Herbicide No. 7 0.28 POE, 13 days after planting
[9] = Herb. […], 5 DAP, before herbicide application
[10] = Table 14: Herbicide No. 7 (ACCENT) 0.84 Kg/Ha POE + Biocide No. 2 8.96 Kg/Ha PPI + antidote 4.48 Kg/Ha PPI, 13 days after planting, 8 days after herbicide
[11] = […], 13 days after planting, 8 days after herbicide
[12] = […], observed 10 days after herbicide application

## CC1CN(C(=O)C(Cl)Cl)C(C)(C)O1 (stereo not drawn) [compound 8]
[1]
  % Inhibition GIFT: 45% and 50% and 85% and 65% and 70% and 90% and 60%
[2]; [6]
  % Inhibition 5 DAP VELE: 10%
[2]; [7]
  % Inhibition 13 DAP VELE: 85%
[2]; [8]
  % Inhibition VELE: 65%
[2]; [9]
  % Inhibition 5 DAP VELE: 0%
[2]; [10]
  % Inhibition VELE: 70%
[2]; [11]
  % Inhibition VELE: 70%
[2]; [12]
  % Inhibition VELE: 75%
[2]; in vivo
  % Inhibition 5 DAP VELE: 0%
  % Inhibition 13 DAP VELE: 90%
[3]; [6]
  % Inhibition 5 DAP SHCA: 0%
[3]; [7]
  % Inhibition 13 DAP SHCA: 90%
[3]; [8]
  % Inhibition SHCA: 60%
[3]; [10]
  % Inhibition SHCA: 85%
[3]; [11]
  % Inhibition SHCA: 90%
[3]; [12]
  % Inhibition SHCA: 60%
[3]; in vivo
  % Inhibition 5 DAP SHCA: 30%
  % Inhibition 13 DAP SHCA: 80%
[4]; C:A Ratio 20, ACCENT 0.56 Kg/Ha POE
  % Inhibition Corn: 10%
[4]; C:A Ratio 20, BEACON 0.28 Kg/Ha POE
  % Inhibition Corn: 0%
[4]; C:A Ratio 40, ACCENT 0.56 Kg/Ha POE
  % Inhibition Corn: 15%
[4]; C:A Ratio 40, BEACON 0.28 Kg/Ha POE
  % Inhibition Corn: 0%
[4]; C:A Ratio 80, ACCENT 0.56 Kg/Ha POE
  % Inhibition Corn: 20%
[4]; C:A Ratio 80, BEACON 0.28 Kg/Ha POE
  % Inhibition Corn: 5%
[4]; C:A Ratio 160, ACCENT 0.56 Kg/Ha POE
  % Inhibition Corn: 40%
[4]; C:A Ratio 160, BEACON 0.28 Kg/Ha POE
  % Inhibition Corn: 15%
[4]; Herbicide No. 8 0.28 Kg/Ha POE + COUNTER 15G 227 g/305 m + antidote in furrow, C:A ratio 5
  % Corn Inhibition C:A Ratios 5: 3%
[4]; Herbicide No. 8 0.28 Kg/Ha POE + COUNTER 15G 227 g/305 m + antidote in furrow, C:A ratio 10
  % Corn Inhibition C:A Ratios 10: 5%
[4]; Herbicide No. 8 0.28 Kg/Ha POE + COUNTER 15G 227 g/305 m + antidote in furrow, C:A ratio 20
  % Corn Inhibition C:A Ratios 20: 5%
[4]; Herbicide No. 8 0.28 Kg/Ha POE + COUNTER 15G 227 g/305 m + antidote in furrow, C:A ratio 40
  % Corn Inhibition C:A Ratios 40: 3%
[4]; Herbicide No. 8 0.28 Kg/Ha POE + COUNTER 15G 227 g/305 m + antidote in furrow, C:A ratio 80
  % Corn Inhibition C:A Ratios 80: 5%
[4]; Herbicide No. 8 0.28 Kg/Ha POE + COUNTER 15G 227 g/305 m + antidote in furrow, C:A ratio 160
  % Corn Inhibition C:A Ratios 160: 10%
[5]; [6]
  % Inhibition 5 DAP Corn: 20%
[5]; [7]
  % Inhibition 13 DAP Corn: 35%
[5]; [8]
  % Inhibition Corn: 35%
[5]; [9]
  % Inhibition 5 DAP Corn: 0%
[5]; [10]
  % Inhibition Corn: 20%
[5]; [11]
  % Inhibition Corn: 20%
[5]; [12]
  % Inhibition Corn: 45%
[5]; in vivo
  % Inhibition 5 DAP Corn: 20%
  % Inhibition 13 DAP Corn: 30%
  % Inhibition Corn: 30% and 55%
